Reference: US5607937A, “Piperazides of substituted phenylalanine derivatives as thrombin inhibitors” (priority 1993, dated 1997)
Values joined by “and” are separate entries in the source; they are usually repeats but may differ in a detail not shown here. Equal entries are not always repeated. Structures can show the parent of a compound that is named as a salt. Where two headings read alike, the source gives them in different places.

Experiments:
factor Xa = factor Xa (Bos taurus, UniProt P00743); test: inhibition of factor Xa, dissociation constant Ki; assay type: biochemical; settings: Table 1
Sequence of factor Xa (P00743 234-492 limits assumed): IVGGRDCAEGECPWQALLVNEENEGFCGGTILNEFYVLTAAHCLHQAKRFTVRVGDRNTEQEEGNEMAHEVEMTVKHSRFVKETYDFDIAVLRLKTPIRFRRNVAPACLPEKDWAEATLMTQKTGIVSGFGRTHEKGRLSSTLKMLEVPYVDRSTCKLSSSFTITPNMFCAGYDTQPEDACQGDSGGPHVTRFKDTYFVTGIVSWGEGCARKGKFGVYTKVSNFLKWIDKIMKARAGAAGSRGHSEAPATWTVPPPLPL
Sequence of factor Xa (P00743 41-180 partner limits assumed): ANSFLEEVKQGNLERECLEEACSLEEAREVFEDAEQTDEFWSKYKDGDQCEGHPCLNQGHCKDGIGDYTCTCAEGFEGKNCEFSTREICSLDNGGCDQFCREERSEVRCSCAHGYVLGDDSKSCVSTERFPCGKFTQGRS
Description: (§1) The biological activity of the compounds of the present invention was determined in vitro as well as in vivo.

thrombin [1] = target: T1, thrombin (Bos taurus, UniProt P00735)
tPA = tPA (Homo sapiens, UniProt P00750); test: inhibition of tPA, dissociation constant Ki
Sequence of tPA (P00750 36-562): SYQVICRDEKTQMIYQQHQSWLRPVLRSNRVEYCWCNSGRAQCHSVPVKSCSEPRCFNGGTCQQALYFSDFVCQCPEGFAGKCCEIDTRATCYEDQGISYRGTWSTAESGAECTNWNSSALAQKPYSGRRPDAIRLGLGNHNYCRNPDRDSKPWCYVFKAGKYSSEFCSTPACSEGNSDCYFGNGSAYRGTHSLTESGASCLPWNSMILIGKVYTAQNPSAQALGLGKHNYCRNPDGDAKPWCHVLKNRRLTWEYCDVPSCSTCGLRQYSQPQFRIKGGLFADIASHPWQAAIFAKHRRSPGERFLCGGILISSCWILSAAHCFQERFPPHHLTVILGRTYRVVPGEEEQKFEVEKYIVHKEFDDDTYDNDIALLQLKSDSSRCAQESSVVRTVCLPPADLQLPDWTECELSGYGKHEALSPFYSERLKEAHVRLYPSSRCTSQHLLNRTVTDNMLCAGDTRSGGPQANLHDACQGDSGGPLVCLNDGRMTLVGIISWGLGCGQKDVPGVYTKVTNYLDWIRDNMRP

plasmin = plasmin (Homo sapiens, UniProt P00747); test: inhibition of plasmin, dissociation constant Ki
Sequence of plasmin (P00747 581-810 limits assumed): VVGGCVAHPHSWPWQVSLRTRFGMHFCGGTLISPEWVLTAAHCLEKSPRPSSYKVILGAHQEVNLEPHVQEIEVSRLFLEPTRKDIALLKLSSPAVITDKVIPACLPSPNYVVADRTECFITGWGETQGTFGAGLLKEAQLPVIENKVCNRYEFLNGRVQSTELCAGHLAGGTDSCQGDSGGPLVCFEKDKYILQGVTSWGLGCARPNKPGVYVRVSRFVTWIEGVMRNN
Sequence of plasmin (P00747 97-580 partner limits assumed): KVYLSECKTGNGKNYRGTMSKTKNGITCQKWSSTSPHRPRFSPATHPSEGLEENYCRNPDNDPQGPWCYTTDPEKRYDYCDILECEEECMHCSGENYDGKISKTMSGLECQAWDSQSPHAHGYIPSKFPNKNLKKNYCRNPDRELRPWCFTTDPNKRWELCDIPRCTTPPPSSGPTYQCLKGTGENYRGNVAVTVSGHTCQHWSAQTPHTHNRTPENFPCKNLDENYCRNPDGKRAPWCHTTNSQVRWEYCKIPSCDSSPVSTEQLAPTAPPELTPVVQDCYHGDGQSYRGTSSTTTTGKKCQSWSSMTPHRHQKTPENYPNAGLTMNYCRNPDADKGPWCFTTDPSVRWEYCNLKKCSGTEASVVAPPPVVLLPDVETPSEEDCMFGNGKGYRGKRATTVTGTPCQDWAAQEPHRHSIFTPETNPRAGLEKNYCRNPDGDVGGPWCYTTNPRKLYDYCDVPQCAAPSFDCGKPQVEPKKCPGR

factor XIIa = target: T2, factor XIIa (Homo sapiens, UniProt P00748); test: inhibition of factor XIIa, dissociation constant Ki
T2 sequence (P00748 373-615 limits assumed): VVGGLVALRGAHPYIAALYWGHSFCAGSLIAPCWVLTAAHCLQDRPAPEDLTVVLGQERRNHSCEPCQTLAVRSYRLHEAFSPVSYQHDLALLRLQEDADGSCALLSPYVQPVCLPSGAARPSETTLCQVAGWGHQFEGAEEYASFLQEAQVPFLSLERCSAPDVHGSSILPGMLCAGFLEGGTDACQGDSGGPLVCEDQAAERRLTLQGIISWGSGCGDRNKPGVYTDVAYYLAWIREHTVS

plasma kallikrein = plasma kallikrein (Homo sapiens, UniProt P03952); test: inhibition of plasma kallikrein, dissociation constant Ki
Sequence of plasma kallikrein (P03952 391-638 limits assumed, species assumed): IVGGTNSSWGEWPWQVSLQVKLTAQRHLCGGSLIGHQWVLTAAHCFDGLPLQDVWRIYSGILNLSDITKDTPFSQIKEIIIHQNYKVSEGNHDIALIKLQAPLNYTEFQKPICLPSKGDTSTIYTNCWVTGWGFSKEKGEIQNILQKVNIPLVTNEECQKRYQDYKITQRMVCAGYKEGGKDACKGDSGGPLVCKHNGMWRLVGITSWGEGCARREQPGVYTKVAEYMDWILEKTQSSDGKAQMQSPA
Sequence of plasma kallikrein (P03952 20-390 partner limits assumed, species assumed): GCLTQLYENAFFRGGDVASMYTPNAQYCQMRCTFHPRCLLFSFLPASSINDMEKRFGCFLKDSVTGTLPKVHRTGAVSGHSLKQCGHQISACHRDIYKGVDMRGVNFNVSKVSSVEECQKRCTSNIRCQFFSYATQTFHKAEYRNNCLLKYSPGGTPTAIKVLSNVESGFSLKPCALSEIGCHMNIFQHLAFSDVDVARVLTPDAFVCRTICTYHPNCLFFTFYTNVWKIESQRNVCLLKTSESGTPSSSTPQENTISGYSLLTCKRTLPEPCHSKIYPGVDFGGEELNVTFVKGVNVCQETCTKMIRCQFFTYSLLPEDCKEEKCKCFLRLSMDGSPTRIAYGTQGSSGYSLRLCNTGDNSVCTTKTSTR

glandular kallikrein = glandular kallikrein (Sus scrofa, UniProt P00752); test: inhibition of glandular kallikrein, dissociation constant Ki
Sequence of glandular kallikrein (P00752 8-246): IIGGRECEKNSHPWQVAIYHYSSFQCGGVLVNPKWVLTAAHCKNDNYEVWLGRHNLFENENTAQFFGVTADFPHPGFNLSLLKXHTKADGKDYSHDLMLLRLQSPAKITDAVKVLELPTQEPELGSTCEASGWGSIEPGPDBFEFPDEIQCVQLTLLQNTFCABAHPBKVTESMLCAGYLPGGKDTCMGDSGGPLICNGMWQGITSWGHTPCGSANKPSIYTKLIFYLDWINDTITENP

trypsin = target: T3, trypsin (Bos taurus, UniProt P00760); test: inhibition of trypsin, dissociation constant Ki; assay type: biochemical; parameters: thrombin and the related enzymes trypsin, plasmin, factor Xa, factor XIIa; settings: Table 1; read-out: Ki, Trypsin
T3 sequence (P00760 24-246): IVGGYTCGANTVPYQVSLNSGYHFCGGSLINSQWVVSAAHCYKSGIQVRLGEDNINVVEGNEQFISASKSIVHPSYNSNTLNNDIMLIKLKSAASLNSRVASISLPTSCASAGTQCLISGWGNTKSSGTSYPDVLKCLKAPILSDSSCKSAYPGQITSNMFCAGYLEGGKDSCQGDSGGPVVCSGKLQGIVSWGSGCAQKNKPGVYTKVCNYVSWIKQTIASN
Description: as §1

thrombin [2] = target: T1, thrombin; test: biochemical
[3] = plasma concentration in rats after intravenous administration; assay type: in vivo; settings: rat
Description: A physiological NaCl solution of the substance to be tested was submitted to high pressure liquid chromatography (HPLC) in order to determine its characteristic substance-specific retention time with the chosen test conditions.
The substance to be tested was diluted in vitro in rat plasma. This solution was also submitted to HPLC to see whether the characteristic peak of the substance once again appeared at the substance-specific retention time.
Blood samples were taken at time intervals of 15 minutes, from which plasma samples were prepared by centrifugation; those samples were also submitted to HPLC to see whether the characteristic peak of the substance appeared again at the substance-specific retention time.
After administration, blood samples were taken from the test animals at time intervals from 2 to maximally 360 minutes and the blood level of the compounds to be tested was determined by HPLC.

[4] = plasma concentration in rats after oral administration; assay type: in vivo; settings: rat
[5] = plasma concentration in rats after rectal administration; assay type: in vivo; settings: rat
[6] = test system: coagulation in human plasma; test: thrombin time (TT) in human plasma
[7] = test system: coagulation in human plasma; test: prothrombin time (PT, Quick value) in human plasma
[8] = test system: coagulation in human plasma; test: activated partial thromboplastin time (aPTT) in human plasma
[9] = read-out: Ki, Thrombin, Table 1

## CN(C)C(=O)N1CCN(C(=O)C(Cc2cccc(C(=N)N)c2)NS(=O)(=O)c2cccc3ccccc23)CC1 (stereo not shown) [AMD 1-Naph CO2 N(Me)2]
Factor Xa
  Ki: 5.9 µM
Thrombin [1]; [9]
  Ki: 0.068 µM
tPA; read-out: Ki, tPA, Table 1
  Ki: 270 µM
plasmin; read-out: Ki, Plasmin, Table 1
  Ki: 4.8 µM
Factor XIIa; read-out: Ki, Factor XIIa, Table 1
  Ki: 72 µM
Plasma kallikrein; read-out: Ki, Plasma kallikr., Table 1
  Ki: 37 µM
Glandular kallikrein; read-out: Ki, Gland. kallikr., Table 1
  Ki: > 1000 µM
trypsin
  Ki: 0.25 µM

## CN(C)C(=O)N1CCN(C(=O)C(Cc2cccc(C(=N)N)c2)NS(=O)(=O)c2ccc3ccccc3c2)CC1 (stereo not shown) [AMD 2-Naph CO-N(Me)2]
Factor Xa
  Ki: 24 µM and 22 µM
Thrombin [1]; [9]
  Ki: 0.0088 µM
Thrombin [2]
  Ki: 0.013 µM
tPA
  Ki: > 1000 µM
plasmin
  Ki: 6.2 µM
plasmin; read-out: Ki, Plasmin, Table 1
  Ki: 6.1 µM
Factor XIIa; Ki, Factor XIIa, Table 1
  Ki: 200 µM and 130 µM
Plasma kallikrein; Ki, Plasma kallikr., Table 1
  Ki: 47 µM and 28 µM
Glandular kallikrein
  Ki: > 1000 µM
trypsin
  Ki: 0.049 µM

## CC(=O)N1CCN(C(=O)C(Cc2cccc(C(=N)N)c2)NS(=O)(=O)c2ccc3ccccc3c2)CC1 (stereo not shown) [Compound 1]
Factor Xa
  Ki: 48 µM
[3]; plasma, iv, i.v. 1 mg/kg, 5 min
  concentration at 5 min: 1060 ng/mL
[3]; plasma, iv, i.v. 1 mg/kg, 15 min
  concentration at 0.25 h: 394 ng/mL
[3]; plasma, iv, i.v. 1 mg/kg, 30 min
  concentration at 0.5 h: 150 ng/mL
[3]; plasma, iv, i.v. 1 mg/kg, 60 min
  concentration at 1 h: 89 ng/mL
[3]; plasma, iv, i.v. 1 mg/kg, 120 min
  concentration at 2 h: 74 ng/mL
[3]; plasma, iv, i.v. 1 mg/kg, 180 min
  concentration at 3 h: 51 ng/mL
[3]; i.v.
  elimination in words: eliminated at comparable rate
[4]; plasma, oral 50 mg/kg, 30 min
  concentration at 0.5 h: 87 ng/mL
[4]; plasma, oral 50 mg/kg, 60 min
  concentration at 1 h: 63 ng/mL
[4]; plasma, oral 50 mg/kg, 120 min
  concentration at 2 h: 57 ng/mL
[4]; plasma, oral 50 mg/kg, 180 min
  concentration at 3 h: 69 ng/mL
[4]; plasma, oral 50 mg/kg, 240 min
  concentration at 4 h: 91 ng/mL
[4]; plasma, oral 50 mg/kg, 300 min
  concentration at 5 h: 61 ng/mL
[4]; oral
  resorption in words: only slightly resorbed
[5]; plasma, rectal 100 mg/kg, 30 min
  concentration at 0.5 h: 31400 ng/mL
[5]; plasma, rectal 100 mg/kg, 60 min
  concentration at 1 h: 17900 ng/mL
[5]; plasma, rectal 100 mg/kg, 120 min
  concentration at 2 h: 3780 ng/mL
[5]; plasma, rectal 100 mg/kg, 180 min
  concentration at 3 h: 1080 ng/mL
[5]; plasma, rectal 100 mg/kg, 240 min
  concentration at 4 h: 438 ng/mL
[5]; plasma, rectal 100 mg/kg, 300 min
  concentration at 5 h: 220 ng/mL
[5]; plasma, rectal 100 mg/kg, 360 min
  concentration at 6 h: 158 ng/mL
[5]; rectal
  detectable in plasma after rectal administration: ≥ 6 h
[6]
  Concentr. to double the Thrombin time: 0.095 µmol/L
  concentration to double the TT: less than 10^-7 mol/1
tPA
  Ki: > 1000 µM
plasmin; read-out: Ki, Plasmin, Table 1
  Ki: 8.4 µM
[7]
  Concentr. to double the Prothrombin time: 2.5 µmol/L
  concentration to double the PT: ≤ 1 μmol/1
Factor XIIa
  Ki: 210 µM
Plasma kallikrein
  Ki: 28 µM
Glandular kallikrein
  Ki: > 1000 µM
[8]
  Concentr. to double the aPTT: 0.90 µmol/L
  concentration to double the aPTT: ≤ 1 μmol/1

## CC(=O)N1CCN(C(=O)C(Cc2cccc(C(=N)N)c2)NS(=O)(=O)c2ccc3c(c2)C(=O)c2ccccc2C3=O)CC1 (stereo not shown) [Compound 4]
Factor Xa
  Ki: 4.1 µM
Thrombin [2]
  Ki: 0.014 µM
[6]
  Concentr. to double the Thrombin time: 0.085 µmol/L
  concentration to double the TT: less than 10^-7 mol/1
tPA
  Ki: > 1000 µM
plasmin
  Ki: 8.6 µM
[7]
  Concentr. to double the Prothrombin time: 2.0 µmol/L
  concentration to double the PT: ≤ 1 μmol/1
Factor XIIa
  Ki: 52 µM
Plasma kallikrein
  Ki: 7 µM
Glandular kallikrein
  Ki: > 1000 µM
[8]
  Concentr. to double the aPTT: 1.2 µmol/L
  concentration to double the aPTT: ≤ 1 μmol/1
trypsin
  Ki: 0.026 µM

## COc1cc(C)c(S(=O)(=O)N[C@@H](Cc2cccc(C(=N)N)c2)C(=O)N2CCN(S(C)(=O)=O)CC2)c(C)c1C [Compound 9]
Factor Xa
  Ki: 48 µM
Thrombin [2]
  Ki: 0.02 µM
[6]
  Concentr. to double the Thrombin time: 0.12 µmol/L
tPA
  Ki: 600 µM
plasmin
  Ki: 8.2 µM
[7]
  Concentr. to double the Prothrombin time: 1.1 µmol/L
Factor XIIa
  Ki: > 1000 µM
Plasma kallikrein
  Ki: 170 µM
Glandular kallikrein
  Ki: > 1000 µM
[8]
  Concentr. to double the aPTT: 0.57 µmol/L
trypsin
  Ki: 0.86 µM

## Cc1c(C)c(S(=O)(=O)N[C@@H](Cc2cccc(C(=N)N)c2)C(=O)N2CCN(S(C)(=O)=O)CC2)c(C)c2c1OC(C)(C)CC2 [Compound 10, Pmc-3-amidino-(L)-phenylalanine-4-methylsulfonyl piperazide hydrochloride]
Factor Xa
  Ki: 37 µM
Thrombin [2]
  Ki: 0.0053 µM
[6]
  Concentr. to double the Thrombin time: 0.10 µmol/L
tPA
  Ki: 600 µM
[7]
  Concentr. to double the Prothrombin time: 0.8 µmol/L
Factor XIIa
  Ki: > 1000 µM
Plasma kallikrein
  Ki: 110 µM
Glandular kallikrein
  Ki: > 1000 µM
[8]
  Concentr. to double the aPTT: 0.44 µmol/L

## CS(=O)(=O)N1CCN(C(=O)C(Cc2cccc(C(=N)N)c2)NS(=O)(=O)c2cccc3ccccc23)CC1 (stereo not shown) [Compound 11]
Factor Xa
  Ki: 9.7 µM
Thrombin [1]; [9]
  Ki: 0.026 µM
Thrombin [1]; read-out: Thrombin inhibition Ki, Table 7
  Ki: 0.026 µM
tPA
  Ki: > 1000 µM
plasmin; read-out: Ki, Plasmin, Table 1
  Ki: 5 µM
Factor XIIa
  Ki: > 1000 µM
Plasma kallikrein
  Ki: 79 µM
Glandular kallikrein
  Ki: > 1000 µM
